This note sets out measurements from patent US8975417B2, “Pyrazolopyrrolidine derivatives and their use in the treatment of disease” (Novartis AG, priority 2013, dated 2015).

A value given as a limit tells only on which side of the number the result lay.

One assay has as its system MV-4-11 cells. In words: Cell growth inhibition assay (CellTiter-Glo), MV-4-11. Type of assay: cell-based. The settings on record: Homo sapiens, MV4-11, read-out: MV-4-11 TGI. A digest of the protocol:
(§1)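 Dose-response over 3-fold dilutions from 10 μM; 0.1% DMSO control. Endpoint: CellTiter-Glo ATP signal, background-subtracted and day 0-corrected.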
(In ATP-based viability assays light output follows the ATP content of the culture.)

A further assay has as its system THP-1 cells. In words: Cell growth inhibition assay (CellTiter-Glo), THP-1. Type of assay: cell-based. The settings on record: Homo sapiens, read-out: THP-1 TGI. In outline: as §1
A further assay has as its system K-562 cells. In words: Cell growth inhibition assay (CellTiter-Glo), K-562. It counts as cell-based, human. The following applies: Homo sapiens, K562, read-out: K-562 TGI. A digest of the protocol:
as §1

A further assay concerns the target His-Brd2(60-472) (Homo sapiens (Human), UniProt P25440). As to the kind of experiment: TR-FRET in-vitro binding assay for BRD2. The following applies: biochemical. A digest of the protocol: (§2)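 His-tagged BRD2(60-472), BRD3(20-477) or BRD4(44-477), 45 nM in dispensing solution, with 60 nM tetra-acetylated histone H4 peptide (AcK5/8/12/16) in dispensing solution; HEPES pH 7.5, 50 mM NaCl, 0.1% BSA, 30 °C, 35 min. Eu-anti-His6 antibody plus streptavidin-APC added for TR-FRET read-out; 8-point compound dilutions.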
Background: Time-resolved FRET reads energy transfer from a long-lived donor to a nearby acceptor.

A further assay concerns the target His-Brd4(44-477) (Homo sapiens (Human), UniProt O60885). In words: TR-FRET in-vitro binding assay for BRD4. The settings on record: biochemical. In outline:
as §2

In a further assay the target is His-Brd3(20-477) (Homo sapiens (Human), UniProt Q15059). As to the kind of experiment: TR-FRET in-vitro binding assay for BRD3. The settings on record: biochemical. In outline: as §2
The target of assay [1] is His-CREBBP (1081-1197) bromodomain (Homo sapiens (Human), UniProt Q92793). As to the kind of experiment: AlphaScreen in-vitro binding assay for CREBBP. The following applies: biochemical. A digest of the protocol:
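Ni-chelate acceptor and streptavidin donor beads (45 µg/mL each, in 50 mM HEPES pH 7.5, 150 mM NaCl, 0.02% BSA) were then added for 60 min at room temperature. IC50 came from 8-point non-linear regression.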
In general terms: In Alpha technology, singlet oxygen from a donor bead excites a nearby acceptor bead.

Chain of His-Brd3(20-477) (Q15059 20-477): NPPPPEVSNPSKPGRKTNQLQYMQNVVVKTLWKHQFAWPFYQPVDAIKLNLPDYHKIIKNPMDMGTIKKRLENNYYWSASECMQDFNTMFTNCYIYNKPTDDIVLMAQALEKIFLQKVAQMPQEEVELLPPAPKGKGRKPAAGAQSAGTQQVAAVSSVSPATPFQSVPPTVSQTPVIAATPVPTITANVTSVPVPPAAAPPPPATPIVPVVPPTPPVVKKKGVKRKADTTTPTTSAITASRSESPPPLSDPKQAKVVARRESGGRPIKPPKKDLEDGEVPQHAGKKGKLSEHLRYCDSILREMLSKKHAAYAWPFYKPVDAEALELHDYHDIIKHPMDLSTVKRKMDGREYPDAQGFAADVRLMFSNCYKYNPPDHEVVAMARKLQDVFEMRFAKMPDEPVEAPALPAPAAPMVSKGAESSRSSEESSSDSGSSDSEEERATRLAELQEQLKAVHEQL
Chain of His-CREBBP (1081-1197) bromodomain (Q92793 1081-1197): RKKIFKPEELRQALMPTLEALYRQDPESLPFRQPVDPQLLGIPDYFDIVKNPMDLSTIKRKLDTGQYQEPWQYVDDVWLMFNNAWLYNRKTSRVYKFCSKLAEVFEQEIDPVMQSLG
Chain of His-Brd2(60-472) (P25440 60-472): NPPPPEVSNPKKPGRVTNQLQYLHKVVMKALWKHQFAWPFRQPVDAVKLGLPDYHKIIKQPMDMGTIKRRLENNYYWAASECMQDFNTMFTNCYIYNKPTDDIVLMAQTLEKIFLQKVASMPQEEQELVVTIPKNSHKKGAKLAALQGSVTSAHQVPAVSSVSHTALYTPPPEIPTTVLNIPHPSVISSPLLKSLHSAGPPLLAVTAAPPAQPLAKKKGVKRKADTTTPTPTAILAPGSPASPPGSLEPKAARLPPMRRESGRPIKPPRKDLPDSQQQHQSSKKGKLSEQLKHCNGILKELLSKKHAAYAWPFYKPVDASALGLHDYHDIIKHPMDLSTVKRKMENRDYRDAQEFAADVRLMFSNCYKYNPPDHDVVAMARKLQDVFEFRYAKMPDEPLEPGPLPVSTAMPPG

Consider `Cc1nn(C)c2c1C(c1ccc(Cl)cc1)N(c1cc(Cl)c(=O)n(C)c1)C2=O` (stereo not drawn) [Example 58, 5-(5-chloro-1-methyl-6-oxo-1,6-dihydropyridin-3-yl)-4-(4-chlorophenyl)-1,3-dimethyl-4,5-dihydropyrrolo[3,4-c]pyrazol-6(1H)-one], for which the IC (total growth inhibition) with MV-4-11 cells was 0.157 µM; in the assay on THP-1 cells, 0.38 µM; in the assay on K-562 cells, above 10 µM. In addition, the half-inhibitory concentration (IC50) (as a rule, the midpoint of a concentration-inhibition curve) is 560 nM at His-Brd2(60-472), 410 nM on His-Brd4(44-477), 290 nM at His-Brd3(20-477) and 8200 nM in assay [1].
`COc1nccc(-n2nc(C)c3c2C(=O)N(c2cc(C)c(=O)n(C)c2)C3c2ccc(Cl)cc2)n1` (stereo not drawn) [Example 59, 4-(4-chlorophenyl)-5-(1,5-dimethyl-6-oxo-1,6-dihydropyridin-3-yl)-1-(2-methoxypyrimidin-4-yl)-3-methyl-4,5-dihydropyrrolo[3,4-c]pyrazol-6(1H)-one]: the IC (total growth inhibition) in the assay on MV-4-11 cells is 0.325 µM; in the assay with THP-1 cells, 0.598 µM; in the assay on K-562 cells, above 10 µM. In addition, the IC50 amounted to 610 nM at His-Brd2(60-472), 390 nM at His-Brd4(44-477), 480 nM on His-Brd3(20-477) and 7300 nM in assay [1].
For `CCc1nn(-c2cnc(OC)nc2OC)c2c1C(c1ccc(Cl)cc1)N(c1cc(C)c(=O)n(C)c1)C2=O` (stereo not drawn) [Example 60, 4-(4-chlorophenyl)-1-(2,4-dimethoxypyrimidin-5-yl)-5-(1,5-dimethyl-6-oxo-1,6-dihydropyridin-3-yl)-3-ethyl-4,5-dihydropyrrolo[3,4-c]pyrazol-6(1H)-one], the IC (total growth inhibition) in the assay with MV-4-11 cells is 0.154 µM; in the assay on THP-1 cells, 0.302 µM; in the assay with K-562 cells, above 10 µM. For the same compound, the half-inhibitory concentration (IC50) was determined as 160 nM on His-Brd2(60-472), 140 nM on His-Brd4(44-477), 120 nM at His-Brd3(20-477) and 8800 nM in assay [1].
Consider `COc1ncc(-n2nc3c(c2C(C)C)[C@@H](c2ccc(Cl)cc2)N(c2cc(C)c4onc(C)c4c2)C3=O)c(OC)n1` [Example 62, (R)-4-(4-chlorophenyl)-2-(2,4-dimethoxypyrimidin-5-yl)-5-(3,7-dimethylbenzo[d]-isoxazol-5-yl)-3-isopropyl-4,5-dihydropyrrolo[3,4-c]pyrazol-6(2H)-one], for which the IC (total growth inhibition) in the assay with MV-4-11 cells was 0.105 µM; in the assay with THP-1 cells, 0.174 µM; with K-562 cells, above 10 µM. For the same compound, the IC50 at His-Brd2(60-472) is 60 nM; on His-Brd4(44-477), 67 nM; at His-Brd3(20-477) it was 72 nM; in assay [1], 1700 nM.
In the case of `Cc1nn(C(C)C)c2c1C(c1ccc(Cl)cc1)N(c1cc(C)c(=O)n(C)c1)C2=O` (stereo not drawn) [Example 63, 4-(4-chlorophenyl)-5-(1,5-dimethyl-6-oxo-1,6-dihydropyridin-3-yl)-1-isopropyl-3-methyl-4,5-dihydropyrrolo[3,4-c]pyrazol-6(1H)-one], the IC (total growth inhibition) is 0.0509 µM with MV-4-11 cells, 0.115 µM in the assay with THP-1 cells and above 10 µM in the assay with K-562 cells. Besides, the 50% inhibitory concentration (IC50) at His-Brd2(60-472) is 130 nM; on His-Brd4(44-477) it was 90 nM; on His-Brd3(20-477), 88 nM; in assay [1], 2500 nM.
Regarding `Cc1cc(N2C(=O)c3nn(C(C)C)c(C)c3C2c2ccc(Cl)cc2)cn(C)c1=O` (stereo not drawn) [Example 64, 4-(4-chlorophenyl)-5-(1,5-dimethyl-6-oxo-1,6-dihydropyridin-3-yl)-2-isopropyl-3-methyl-4,5-dihydropyrrolo[3,4-c]pyrazol-6(2H)-one], the IC (total growth inhibition) with MV-4-11 cells was 0.0423 µM; with THP-1 cells, 0.113 µM; in the assay on K-562 cells, above 10 µM. The IC50 on His-Brd2(60-472) amounted to 180 nM; at His-Brd4(44-477), 130 nM; on His-Brd3(20-477) it was 110 nM; in assay [1], 400 nM.
In the case of `Cc1c2c(nn1C(C)C)C(=O)N(c1cc(Cl)c(=O)n(C)c1)C2c1ccc(Cl)cc1` (stereo not drawn) [Example 65, 5-(5-chloro-1-methyl-6-oxo-1,6-dihydropyridin-3-yl)-4-(4-chlorophenyl)-2-isopropyl-3-methyl-4,5-dihydropyrrolo[3,4-c]pyrazol-6(2H)-one], the IC (total growth inhibition) in the assay with MV-4-11 cells is 0.109 µM; in the assay on THP-1 cells, 0.217 µM; in the assay with K-562 cells, above 10 µM. The IC50 on His-Brd2(60-472) came out at 240 nM; at His-Brd4(44-477), 200 nM; on His-Brd3(20-477) it was 130 nM; in assay [1] it was 420 nM.
In the case of `Cc1nn(C(C)C)c2c1C(c1ccc(Cl)cc1)N(c1cc(Cl)c(=O)n(C)c1)C2=O` (stereo not drawn) [Example 66, 5-(5-chloro-1-methyl-6-oxo-1,6-dihydropyridin-3-yl)-4-(4-chlorophenyl)-1-isopropyl-3-methyl-4,5-dihydropyrrolo[3,4-c]pyrazol-6(1H)-one], the IC (total growth inhibition) with MV-4-11 cells was 0.106 µM; in the assay with THP-1 cells, 0.248 µM; in the assay with K-562 cells it was above 10 µM. Besides, the IC50 is 160 nM at His-Brd2(60-472), 120 nM at His-Brd4(44-477), 110 nM at His-Brd3(20-477) and 2600 nM in assay [1].
For the compound `COc1ncc(-n2nc3c(c2C(C)C)C(c2ccc(Cl)cc2)N(c2cc(C)c4nnc(C)n4c2)C3=O)c(OC)n1` (stereo not drawn) [Example 67, 4-(4-chlorophenyl)-2-(2,4-dimethoxypyrimidin-5-yl)-5-(3,8-dimethyl-[1,2,4]triazolo-[4,3-a]pyridin-6-yl)-3-isopropyl-4,5-dihydropyrrolo[3,4-c]pyrazol-6(2H)-one], the IC (total growth inhibition) was 0.0196 µM with MV-4-11 cells, 0.0385 µM in the assay with THP-1 cells and above 10 µM with K-562 cells. Besides, the IC50 on His-Brd2(60-472) was determined as 43 nM; on His-Brd4(44-477), 24 nM; on His-Brd3(20-477), 28 nM; in assay [1] it was 2800 nM.
For `CCc1c2c(nn1C1CC1)C(=O)N(c1cc(C)c(=O)n(C)c1)C2c1ccc(Cl)cc1` (stereo not drawn) [Example 68], the values for the IC (total growth inhibition) in the assay on MV-4-11 cells, in the assay with THP-1 cells and with K-562 cells were 0.0692 µM, 0.117 µM and above 10 µM, respectively. Further, the IC50 on His-Brd2(60-472) is 37 nM; at His-Brd4(44-477), 44 nM; at His-Brd3(20-477), 40 nM; in assay [1] it was 950 nM.
As for `CCc1nn(C2CC2)c2c1C(c1ccc(Cl)cc1)N(c1cc(C)c(=O)n(C)c1)C2=O` (stereo not drawn) [Example 69], the IC (total growth inhibition) was 0.0466 µM in the assay with MV-4-11 cells, 0.0983 µM in the assay on THP-1 cells and above 10 µM in the assay on K-562 cells. Moreover, the half-inhibitory concentration (IC50) amounted to 26 nM at His-Brd2(60-472), 27 nM at His-Brd4(44-477), 28 nM at His-Brd3(20-477) and 4100 nM in assay [1].
As to `COc1ncccc1-n1nc(C)c2c1C(=O)N(c1cc(C)c(=O)n(C)c1)C2c1ccc(Cl)cc1` (stereo not drawn) [Example 71, 4-(4-chlorophenyl)-5-(1,5-dimethyl-6-oxo-1,6-dihydropyridin-3-yl)-1-(2-methoxypyridin-3-yl)-3-methyl-4,5-dihydropyrrolo[3,4-c]pyrazol-6(1H)-one], the IC (total growth inhibition) was 0.103 µM in the assay with MV-4-11 cells, 0.178 µM in the assay with THP-1 cells and above 10 µM in the assay with K-562 cells. Also, the half-maximal inhibitory concentration (IC50) worked out at 41 nM at His-Brd2(60-472), 53 nM at His-Brd4(44-477), 58 nM on His-Brd3(20-477) and 5900 nM in assay [1].
For `COCc1nn(C2CC2)c2c1[C@@H](c1ccc(Cl)cc1)N(c1cc(C)c(=O)n(C)c1)C2=O` [Example 162, (R)-4-(4-chlorophenyl)-1-cyclopropyl-5-(1,5-dimethyl-6-oxo-1,6-dihydropyridin-3-yl)-3-(methoxymethyl)-4,5-dihydropyrrolo[3,4-c]pyrazol-6(1H)-one], the IC (total growth inhibition) was 0.0903 µM in the assay with MV-4-11 cells, 0.173 µM in the assay on THP-1 cells and above 10 µM in the assay on K-562 cells. For the same compound, the concentration for half-maximal inhibition (IC50) on His-Brd2(60-472) amounted to 39 nM; on His-Brd4(44-477) it was 41 nM; on His-Brd3(20-477), 42 nM; in assay [1] it was 3700 nM.
In the case of `Cc1n[nH]c2c1[C@@H](c1ccc(Cl)cc1)N(c1cc(C)c3nnc(C)n3c1)C2=O` [Example 165, (R)-4-(4-chlorophenyl)-5-(3,8-dimethyl-[1,2,4]triazolo[4,3-a]pyridin-6-yl)-3-methyl-4,5-dihydropyrrolo[3,4-c]pyrazol-6(1H)-one], the IC (total growth inhibition) was 0.0396 µM in the assay on MV-4-11 cells, 0.0921 µM with THP-1 cells and above 10 µM in the assay on K-562 cells. The half-maximal inhibitory concentration (IC50) turned out to be 17 nM on His-Brd2(60-472), 15 nM on His-Brd4(44-477), 23 nM at His-Brd3(20-477) and 4600 nM in assay [1].
Turning to `Cc1cc(N2C(=O)c3c(c(CO)nn3C3CC3)[C@H]2c2ccc(Cl)cc2)cn2c(C)nnc12` [Example 166, (R)-4-(4-chlorophenol)-1-cyclopropyl-5-(3,8-dimethyl-[1,2,4]triazolo[4,3-a]pyridin-6-yl)-3-(hydroxymethyl)-4,5-dihydropyrrolo[3,4-c]pyrazol-6(1H)-one], the IC (total growth inhibition) in the assay with MV-4-11 cells was 0.0262 µM; in the assay with THP-1 cells, 0.0539 µM; in the assay with K-562 cells it was above 10 µM. Further, the IC50 at His-Brd2(60-472) was 16 nM; on His-Brd4(44-477), below 11 nM; at His-Brd3(20-477), 13 nM; in assay [1], 14000 nM.
